What was measured:
Type in all cases: functional
Settings in all cases: 720 h
Mus musculus [1] = test: The percentage 30-day survival of the mice at 75 mg/kg dose, with the radiation dose of 10 Gy.
Mus musculus [2] = test: The percentage 30-day survival of the mice at 150 mg/kg dose, with the radiation dose of 10 Gy.
Mus musculus [3] = test: The percentage 30-day survival of the mice at 300 mg/kg dose, with the radiation dose of 10 GY.
Mus musculus [4] = test: The percentage 30-day survival of the mice at 600 mg/kg dose, with the radiation dose of 10 GY.

**Q.** Which results are given for `NCCCNCCSP(=O)(O)O` [AMIFOSTINE]?
**A.** survival at 75 mg/kg (Mus musculus [1]): 40%; survival at 150 mg/kg (Mus musculus [2]): 40%; survival at 300 mg/kg (Mus musculus [3]): 100%; survival at 600 mg/kg (Mus musculus [4]): 100%

— ChEMBL document CHEMBL1124909 (J Med Chem, 1990)
